Assay in all cases: NCI anticancer screen, dose series, 48 h
Test [1] deals with SF-539 CNS.
The subject of test [2] is SNB-19 CNS.
For test [3], the system named is SF-268 CNS.
Test [4] has as its system COLO 205 colon.
Test [5] has as its system SR leukemia.
The subject of test [6] is CAKI-1 renal.
In test [7] the test system is OVCAR-4 ovarian.
Test [8] has as its system NCI/ADR-RES ovarian.
Test [9] relates to SF-295 CNS.
Test [10] deals with DU-145 prostate.
Test [11] deals with TK-10 renal.

Each structure is given as a SMILES string.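 These data come from cells grown in 96-well plates and exposed to compound for 48 hours at five concentrations. The concentration for 50% growth inhibition is given as GI50. TGI denotes the concentration required for complete inhibition of growth.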 A value given as a limit tells only on which side of the number the result lay.

For `O=c1c2cc(I)ccc2nc(-c2cccs2)n1Nc1ccccc1`, the TGI in test [1] is > 100 µM; in test [2] it was 76.6 µM; in test [3], > 100 µM; in test [4] it was 3.66 µM; in test [5], > 100 µM; in [6], 65.9 µM. For the same molecule, the TGI in [7] is > 100 µM; in [8], > 100 µM; in [9], 32.9 µM.
Turning to `N#Cc1cnn2c1n[n+]([O-])c1ccc(Cl)cc12`, the TGI in [1] is 44.5 µM; in test [2], 10.1 µM; in [3], > 40.3 µM; in test [10] it was 28.5 µM; in test [11] it was > 100 µM; in test [4] it was 31.7 µM. Further, the TGI was 2.53 µM in test [6], 4.03 µM in test [7], > 32.3 µM in [8] and 29.6 µM in [9].
For the molecule `COc1ccc2c(c1)c(Cc1c(C)n(C)c3ccc(OC)cc13)c(C)n2C`, the TGI in test [1], in [2], in [3], in test [11], in test [4] and in [5] was > 100 µM throughout. Moreover, the TGI in test [6], in [7] and in [9] was > 100 µM throughout.
In the case of `CC(=O)Nc1ccc(-c2nnc(SCC(=O)Nc3ccccc3Cl)o2)cc1`, the TGI in test [1], in [2], in [3], in test [11], in [4] and in test [6] was > 100 µM throughout. Also, the TGI in [7] and in [9] was > 100 µM in each case.
As to `CSC1=N/C(=C\c2cccs2)C(=O)N1CN1CCCCC1`, the TGI in [3], in [10], in test [11], in test [4], in test [5] and in test [8] was > 100 µM in each case. The TGI in test [9] was > 100 µM.
For `c1ccc(C2=NN(c3ccccc3)C3(S2)SC(c2ccccc2)(c2ccccc2)c2ccccc23)cc1` (centres undefined), the TGI in test [1], in test [2], in [3], in [11], in [4] and in [6] was > 100 µM each time. The TGI in test [7] and in test [9] was > 100 µM throughout.
In the case of `Clc1cc(Cl)cc(N2N=C(c3cccc(Nc4ccncc4)c3)CC2c2ccccc2)c1` (centres undefined), the GI50 in [1] is 1720 nM; in [3] it was 1990 nM; in test [10], 2540 nM; in [11], 2020 nM; in test [6], 1570 nM; in [7] it was 1860 nM. Moreover, the GI50 in test [9] is 1650 nM. Further, the TGI in test [1] was 3.2 µM; in [3] it was 4.63 µM; in test [10], 6.51 µM; in test [11], 3.98 µM; in test [6], 3.36 µM; in [7] it was 3.87 µM. This molecule yielded a TGI in test [9] of 3.08 µM.
For `CC1C2CC(C(C3C(=O)C4CC3C(C)(C)C4C)C2=O)C1(C)C` (centres undefined), the TGI in test [1], in test [2], in test [3], in [10], in test [11] and in test [4] was > 100 µM each time. For the same molecule, the TGI in [5], in test [6], in test [7] and in [9] was > 100 µM each time.
As for `CCOc1ccc(NCC(=O)N2CC(=O)Nc3ccccc32)cc1`, the TGI in [1], in test [2], in test [3], in test [11], in [4] and in test [5] was > 100 µM in each case. Moreover, the TGI in test [6], in test [7] and in test [9] was > 100 µM throughout.
As to `CC1CN=C(NCc2ccccc2)S1` (centres undefined), the TGI in [1], in test [2], in test [3], in [10], in [11] and in test [5] was > 100 µM each time.
For the molecule `COc1ccc(CCN2CCC(C#N)(c3ccc(OC)c(OC)c3)CC2)cc1OC`, the TGI in test [1], in test [2], in test [3], in [11], in test [4] and in [5] was > 100 µM in each case. Moreover, the TGI in [7] and in [9] was > 100 µM throughout.
For the molecule `Oc1cn(-c2ccc(Cl)cc2)nc1-c1nnc(Nc2ccccc2)o1`, the TGI came to 30.8 µM in test [1]; 50.5 µM in [2]; 33.7 µM in test [3]; 42.1 µM in test [10]; 38.1 µM in test [11]; 51 µM in [4]. Besides, the TGI in test [6] was > 100 µM; in [7], > 100 µM; in [8], 30.1 µM; in [9], 39.2 µM.
`Cc1nc2ccccc2nc1NS(=O)(=O)c1ccc(N)cc1`: the TGI in test [1], in test [2], in test [3], in [11], in [4] and in test [5] was > 100 µM throughout. Besides, the TGI in test [6], in test [7] and in test [9] was > 100 µM in each case.
`O=C1/C(=C/c2cccc([N+](=O)[O-])c2)COc2ccccc21`: the TGI in [2] is 9.07 µM; in test [3], > 80.3 µM; in test [11] it was > 95.2 µM; in test [4], > 100 µM; in test [6], > 100 µM; in [7] it was 6.28 µM. The TGI in test [9] was > 94.5 µM.

The record behind these values is PubChem BioAssay (NCI).
